In patent US8334316B2, “Substituted organosulfur compounds and methods of using thereof” (ACEA Biosciences, Inc., priority 2004, dated 2012):
Like-named read-outs stand apart in the source and are kept apart here.

Test: Acute toxicity, single intravenous injection, LD50 (Bliss method) in Kunming mice
Assay type: in vivo
Details: for Dead animals on each day after the single intravenous injection (c3-c11 = day 1-9, c12 = day 10-14): 163.8 mg/kg; for LD50 at 2 weeks: Kunming, mouse, in vivo, iv
Method: To evaluate the in vivo acute, intravenous toxicity of DBTS and ACEA100108 (a derivative of DBTS, see Table 33), the experiments were performed in non-tumor bearing, normal Kunming mice by monitoring the acute response of mice to a single dose of DBTS or ACEA100108 via intravenous injection (i.v.). The number of death for the treated mice was monitored and recorded. LD50 values for these compounds were calculated. Details of the study are provided below.
The experiments to test DBTS and ACEA100108 acute toxicity were performed in mice. The test mice were randomly divided into six groups (five dosing groups and one control group). Each group contained 20 Kunming strain mice, and among them, 50% were male and 50% were female. After administration of a single dose of DBTS or ACEA100108 via intravenous injection (i.v.), the acute response to DBTS or ACEA100108 compound, and the death of the treated mice during the first two weeks were monitored and recorded. The LD50 value was calculated using the Bliss method.
Materials and Method. The test chemical compound were DBTS and ACEA100108, which were dissolved into hydrogenated castor oil in the pre-warmed water bath and made as a 20 mg/ml solution. The solution was further diluted to desired experiment concentrations with the normal saline. The administration volume was 0.5 ml i.v. per mouse and the injection speed was 0.5 ml/0.5 min.
The experimental mice were Kunming strain, provided by the Experimental Animal Department, Shanghai Pharmaceutical Industry Institute. The certificate number of the facility was Animal Facility Certification Number 107. The average weight of the mice was 18-20 gram. Each test group contained 20 Kunming strain mice, and among them, 10 mice were male and 10 mice were female. […] The mice in the control group were only given the same volume of the solvent, which were diluted hydrogenated castor oil. All the testing mice were given a single intravenous injection of DBTS, ACEA100108, or the solvent that served as the control at the injection speed of 0.5 ml/0.5 min. The acute response to DBTS, ACEA100108 or the solvent immediately after the administration, as well as weight change, and the death within the first two weeks of the administration were monitored and recorded. The intravenous injection LD50 values in mice were calculated using the Bliss method.

[1] = female, 163.8 mg/kg single i.v.
[2] = female, 204.8 mg/kg single i.v.

## c1ccc(CSSSCc2ccccc2)cc1 [DBTS, Dibenzyl trisulfide]
50% male, 50% female, 163.8 mg/kg single i.v.
  Percentage of dead animals %: 0%
50% male, 50% female, 20 animals, deaths on day 8 after injection
  Dead animals on each day after the single intravenous injection (c3-c11 = day 1-9, c12 = day 10-14): 0
50% male, 50% female, 20 animals, deaths on days 10-14 after injection
  Dead animals on each day after the single intravenous injection (c3-c11 = day 1-9, c12 = day 10-14): 0 - - - 0
50% male, 50% female, 204.8 mg/kg single i.v.
  Percentage of dead animals %: 15%
50% male, 50% female, 256 mg/kg single i.v.
  Percentage of dead animals %: 45%
50% male, 50% female, 320 mg/kg single i.v.
  Percentage of dead animals %: 85%
50% male, 50% female, 400 mg/kg single i.v.
  Percentage of dead animals %: 100%
Kunming mice, 50% male 50% female, Bliss method
  mouse single i.v. dose LD50, interval in parentheses: 234.96 to 284.56 mg/kg
Both sexes, 50% male, 50% female Kunming mice, single i.v., read-out: LD50
  LD50 at 2 weeks: 259 mg/kg
Both sexes, 50% male, 50% female Kunming mice, single i.v., read-out: LD50 (95% CL)
  LD50 at 2 weeks: 235 to 284 mg/kg
Both sexes, Kunming mice, 50% male 50% female, Bliss method, read-out: mouse single i.v. dose LD50, interval in parentheses
  LD50 at 2 weeks: 235 to 284 mg/kg
Both sexes, Kunming mice, 50% male 50% female, Bliss method, read-out: mouse single i.v. dose LD50 value
  LD50 at 2 weeks: 259 mg/kg
[1]
  Average animal weight (g) Beginning: 19.9 g
  Average animal weight (g) End: 24.5 g
  Percentage of dead animals %: 0%
female, 10 animals, deaths on day 8 after injection
  Dead animals on each day after the single intravenous injection (c3-c11 = day 1-9, c12 = day 10-14): 0
female, 10 animals, deaths on days 10-14 after injection
  Dead animals on each day after the single intravenous injection (c3-c11 = day 1-9, c12 = day 10-14): 0 - - - 0
[2]
  Average animal weight (g) Beginning: 20.5 g
  Percentage of dead animals %: 20%
female, 204.8 mg/kg single i.v., survivors
  Average animal weight (g) End: 24.3 g
female, 256 mg/kg single i.v.
  Average animal weight (g) Beginning: 19.9 g
  Percentage of dead animals %: 50%
female, 256 mg/kg single i.v., survivors
  Average animal weight (g) End: 24.2 g
female, 320 mg/kg single i.v.
  Average animal weight (g) Beginning: 20.6 g
  Percentage of dead animals %: 80%
female, 320 mg/kg single i.v., survivors
  Average animal weight (g) End: 24.5 g
female, 400 mg/kg single i.v.
  Average animal weight (g) Beginning: 19.8 g
  Percentage of dead animals %: 100%
female, female Kunming mice, single i.v., read-out: LD50
  LD50 at 2 weeks: 256 mg/kg
female, female Kunming mice, single i.v., read-out: LD50 (95% CL)
  LD50 at 2 weeks: 222 to 296 mg/kg
male, 163.8 mg/kg single i.v.
  Average animal weight (g) Beginning: 20.0 g
  Average animal weight (g) End: 26.9 g
  Percentage of dead animals %: 0%
male, 10 animals, deaths on day 8 after injection
  Dead animals on each day after the single intravenous injection (c3-c11 = day 1-9, c12 = day 10-14): 0
male, 10 animals, deaths on days 10-14 after injection
  Dead animals on each day after the single intravenous injection (c3-c11 = day 1-9, c12 = day 10-14): 0 - - - 0
male, 204.8 mg/kg single i.v.
  Average animal weight (g) Beginning: 19.9 g
  Percentage of dead animals %: 10%
male, 204.8 mg/kg single i.v., survivors
  Average animal weight (g) End: 26.6 g
male, 256 mg/kg single i.v.
  Average animal weight (g) Beginning: 20.4 g
  Percentage of dead animals %: 40%
male, 256 mg/kg single i.v., survivors
  Average animal weight (g) End: 26.3 g
male, 320 mg/kg single i.v.
  Average animal weight (g) Beginning: 20.1 g
  Percentage of dead animals %: 90%
male, 320 mg/kg single i.v., survivors
  Average animal weight (g) End: 25.0 g
male, 400 mg/kg single i.v.
  Average animal weight (g) Beginning: 20.1 g
  Percentage of dead animals %: 100%
male, male Kunming mice, single i.v., read-out: LD50
  LD50 at 2 weeks: 261 mg/kg
male, male Kunming mice, single i.v., read-out: LD50 (95% CL)
  LD50 at 2 weeks: 230 to 296 mg/kg
